Measurements: ChEMBL document CHEMBL4325866, “Discovery of a subnanomolar and selective spirocyclic agonist of the glucocorticoid receptor” (Eur J Med Chem, 2019)

Key:
Progesterone receptor = molecular target: T1, Progesterone receptor (Homo sapiens, UniProt P06401); experiment: Displacement of [3H]progesterone from progesterone receptor in human T47D cells after 20 hrs by scintillation counting method; assay type: cell-based
T1 sequence (P06401 whole entry): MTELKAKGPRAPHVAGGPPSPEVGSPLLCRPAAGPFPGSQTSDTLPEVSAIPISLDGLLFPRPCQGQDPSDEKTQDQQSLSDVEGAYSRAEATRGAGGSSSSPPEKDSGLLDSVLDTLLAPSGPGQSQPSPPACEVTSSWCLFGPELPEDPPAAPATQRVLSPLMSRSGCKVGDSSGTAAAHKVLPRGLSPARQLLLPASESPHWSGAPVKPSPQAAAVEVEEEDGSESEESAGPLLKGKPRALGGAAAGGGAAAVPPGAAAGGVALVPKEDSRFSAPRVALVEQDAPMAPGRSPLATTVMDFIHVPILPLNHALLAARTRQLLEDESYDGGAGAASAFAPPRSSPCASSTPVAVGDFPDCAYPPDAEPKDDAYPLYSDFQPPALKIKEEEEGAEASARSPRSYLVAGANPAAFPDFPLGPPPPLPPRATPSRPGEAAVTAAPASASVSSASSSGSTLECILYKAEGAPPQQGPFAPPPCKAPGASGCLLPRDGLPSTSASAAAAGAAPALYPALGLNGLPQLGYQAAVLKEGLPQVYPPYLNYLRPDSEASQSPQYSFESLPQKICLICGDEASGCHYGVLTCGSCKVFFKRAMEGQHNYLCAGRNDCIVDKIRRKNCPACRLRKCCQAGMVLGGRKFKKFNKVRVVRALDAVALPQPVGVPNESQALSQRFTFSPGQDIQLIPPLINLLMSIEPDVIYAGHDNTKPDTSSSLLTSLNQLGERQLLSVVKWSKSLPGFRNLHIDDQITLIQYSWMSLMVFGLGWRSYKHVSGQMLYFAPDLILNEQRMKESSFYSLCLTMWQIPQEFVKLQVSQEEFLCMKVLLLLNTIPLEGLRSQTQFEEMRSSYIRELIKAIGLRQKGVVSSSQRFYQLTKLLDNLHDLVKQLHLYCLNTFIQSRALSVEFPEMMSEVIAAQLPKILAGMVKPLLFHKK

Glucocorticoid receptor = molecular target: T2, Glucocorticoid receptor (Homo sapiens, UniProt P04150); experiment: Displacement of [3H]dexamethasone from GR in human IM9 cells after 6 hrs by scintillation counting method; assay type: cell-based
T2 sequence (P04150 whole entry): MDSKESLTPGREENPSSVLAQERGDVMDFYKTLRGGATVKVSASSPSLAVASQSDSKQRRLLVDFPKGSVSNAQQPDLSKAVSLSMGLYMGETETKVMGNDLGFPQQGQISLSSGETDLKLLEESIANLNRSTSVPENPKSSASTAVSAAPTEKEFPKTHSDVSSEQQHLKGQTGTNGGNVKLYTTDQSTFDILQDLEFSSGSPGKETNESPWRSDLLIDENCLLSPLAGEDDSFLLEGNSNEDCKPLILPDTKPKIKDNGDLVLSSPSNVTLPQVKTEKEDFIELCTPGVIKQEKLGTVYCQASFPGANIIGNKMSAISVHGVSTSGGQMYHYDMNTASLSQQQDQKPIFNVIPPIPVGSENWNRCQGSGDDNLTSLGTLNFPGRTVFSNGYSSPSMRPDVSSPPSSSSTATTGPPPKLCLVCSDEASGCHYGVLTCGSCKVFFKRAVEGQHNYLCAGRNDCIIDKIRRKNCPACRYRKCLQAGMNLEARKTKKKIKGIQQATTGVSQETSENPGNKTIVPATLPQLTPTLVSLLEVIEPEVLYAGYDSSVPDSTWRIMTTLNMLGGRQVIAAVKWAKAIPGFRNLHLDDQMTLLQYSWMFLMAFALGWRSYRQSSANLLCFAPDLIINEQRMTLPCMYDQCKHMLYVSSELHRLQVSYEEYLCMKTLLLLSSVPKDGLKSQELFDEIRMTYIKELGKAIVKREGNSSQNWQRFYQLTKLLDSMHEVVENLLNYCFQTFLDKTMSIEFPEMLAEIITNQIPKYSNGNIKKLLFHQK

A549 [1] = experiment: Antiinflammatory activity in human A549 cells assessed as inhibition of IL1beta-induced IL6 production preincubated for 30 mins followed by IL1beta-stimulation and measured after 20 hrs by AlphaLisa assay; assay type: functional, cell-based
Blood = experiment: Antiinflammatory activity in Sprague-Dawley rat whole blood assessed as inhibition of LPS-induced TNFalpha production measured after 18 hrs by AlphaLisa assay; assay type: functional, tissue-based
A549 [2] = experiment: Potency index, ratio of prednisolone IC50 to test compound IC50 for inhibition of IL1beta-induced IL6 production in human A549 cells; assay type: functional
[3] = molecular target: T3, Glucocorticoid receptor (Homo sapiens) (UniProt P04150); experiment: Potency index, ratio of prednisolone IC50 to test compound IC50 for displacement of [3H]dexamethasone from GR in human IM9 cells; assay type: cell-based
T3 sequence (whole entry): T2 sequence (P04150 whole entry)

IC50 (Glucocorticoid receptor)	SMILES	further results
6 nM	O[C@@]1(c2ccccc2)CCCCC[C@@]12C=Cc1c(cnn1-c1ccc(F)cc1)C2	IC50 (Progesterone receptor): > 1000 nM
0.41 nM	O[C@@]1(c2ccccc2)CCCC[C@@]12C=Cc1c(cnn1-c1ccc(F)cc1)C2	IC50 (Progesterone receptor): 780 nM; IC50 (A549 [1]): 0.5 nM; IC50 (Blood): 4 nM; Ratio IC50 (A549 [2]): 10; Ratio IC50 [3]: 30
1010 nM	O[C@]1(c2ccccc2)CCCC[C@@]12C=Cc1c(cnn1-c1ccc(F)cc1)C2	
9.5 nM	O[C@]1(c2ccccc2)CCCCC[C@@]12C=Cc1c(cnn1-c1ccc(F)cc1)C2	
89 nM	O[C@@]1(Cc2ccccc2)CCCCC[C@@]12C=Cc1c(cnn1-c1ccc(F)cc1)C2	
> 1000 nM	O[C@@]1(c2ccccc2)CCC[C@]12C=Cc1c(cnn1-c1ccc(F)cc1)C2	

More lines, now with the values behind:

SMILES	IC50 (Glucocorticoid receptor)	further results
C#CC[C@H]1CCC[C@]2(C=Cc3c(cnn3-c3ccc(F)cc3)C2)[C@H]1O	> 1000 nM	
Oc1ccc(C2=CCCC[C@]23C=Cc2c(cnn2-c2ccc(F)cc2)C3)cc1	10 nM	
COc1ccc(C2=CCCC[C@]23C=Cc2c(cnn2-c2ccc(F)cc2)C3)cc1	135 nM	
C[C@]12C=CC(=O)C=C1CC[C@@H]1[C@@H]2[C@@H](O)C[C@@]2(C)[C@H]1CC[C@]2(O)C(=O)CO [PREDNISOLONE]		IC50 (A549 [1]): 5.8 nM; IC50 (Blood): 4.6 nM
O[C@H]1C(Cc2ccccc2)(Cc2ccccc2)CCC[C@]12C=Cc1c(cnn1-c1ccc(F)cc1)C2	> 1000 nM	
Fc1ccc(-n2ncc3c2C=C[C@]2(CCCC=C2c2ccccc2)C3)cc1	20 nM	IC50 (Progesterone receptor): > 1000 nM
O[C@H]1[C@@H](Cc2ccccc2)CCC[C@]12C=Cc1c(cnn1-c1ccc(F)cc1)C2	> 1000 nM	
O[C@]1(Cc2ccccc2)CCCCC[C@@]12C=Cc1c(cnn1-c1ccc(F)cc1)C2	130 nM	
